Converted amounts (≈) assume the structure as drawn. *1 amine or outer side, *2 acyl side, *3 side chain or, on linkers, in order; H or OH if unused. Where a SMILES comes first, the peptide text is derived from it. Bridges are numbered along the chain shown (N, C = ends). [ ]: non-standard residue; d: D form. The star is where a group is joined. NH(2-ClPh) = Clc1ccccc1N*; dDab = NCC[C@@H](N)C(=O)O; Octanoyl = CCCCCCCC(=O)*; Dab = NCC[C@H](N)C(=O)O; CO = O=C([*:1])[*:2]

One data set has as its system A. baumannii ATCC 19606. Kind of data set: microbe, parasite or virus in culture. The method, boiled down: (§1)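 Growth inhibition is assessed by broth microdilution, with the MIC expressed in mg/L; polymyxin B, colistin, vancomycin and gentamicin act as positive controls.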
The next data set concerns E. coli ATCC 25922. Kind of data set: microbe, parasite or virus in culture. The method in brief:
as §1

The subject of the next data set is K. pneumoniae ATCC 13833. The data set can be described thus: microbe, parasite or virus in culture. The method in brief:
as §1

In data set [1] the test system is K. pneumoniae ATCC 700603. The data set can be described thus: microbe, parasite or virus in culture. The method, boiled down:
as §1

In a further data set the test system is K. pneumoniae BAA 2146. Kind of data set: microbe, parasite or virus in culture. The method in brief:
as §1

In another data set the test system is P. aeruginosa ATTC 27853. The data set can be described thus: microbe, parasite or virus in culture. The method, boiled down:
as §1

For data set [2], the system named is P. aeruginosa FADDI PA070. The data set can be described thus: microbe, parasite or virus in culture. The method, boiled down: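 Antibacterial activity: broth microdilution MIC (mg/L) against the reference isolate.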
A further data set concerns S. aureus ATCC 25923. Kind of data set: microbe, parasite or virus in culture. The method in brief:
as §1

A further data set in a line: in vitro. As to conditions: human. The method in brief:
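HK-2 cells seeded 2000 cells/well in DMEM/F12 with 10% FBS, grown 24 h, then exposed to compounds (300 µM to 2.3 µM, 2-fold series; colistin/polymyxin B 1 mM to 7.8 µM) for 24 h at 37 °C. LDH in medium read at 450 nm after 30 min; cytotoxicity % relative to 1% Triton X-100 and untreated cells.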

For the compound `CCCCCCCC(=O)N[C@H](C(=O)N[C@H](CCN)C(=O)N[C@H]1CCNC(=O)[C@H]([C@@H](C)O)NC(=O)[C@H](CCN)NC(=O)[C@H](CCN)NC(=O)[C@H](CC(C)C)NC(=O)[C@@H](Cc2ccccc2)NC(=O)[C@H](CCN)NC1=O)[C@@H](C)O` [Compound 21] (Octanoyl-T[dDab][Dab][Dab][dF]L[Dab][Dab]T; lactam 3-C), the “MIC A. baumannii ATCC 19606” value against A. baumannii ATCC 19606 (ATCC 19606, 18 h) was 8 µg/mL (≈ 7.34 µM). Besides, the “MIC E. coli ATCC 25922” value in the data set on E. coli ATCC 25922 (ATCC 25922, 18 h) came out at 0.5 µg/mL (≈ 0.459 µM). In addition, in the data set on K. pneumoniae ATCC 13833 (ATCC 13833, 18 h), the “MIC K. pneumoniae ATCC 13833” value stood at 4 µg/mL (≈ 3.67 µM). Further, the “MIC K. pneumoniae ATCC 700603” value in data set [1] (ATCC 700603, 18 h) turned out to be 1 µg/mL (≈ 0.918 µM). For the same compound, the “MIC K. pneumoniae BAA 2146” value with K. pneumoniae BAA 2146 (BAA 2146, 18 h) stood at 1 µg/mL (≈ 0.918 µM). The “MIC P. aeruginosa ATTC 27853” value with P. aeruginosa ATTC 27853 (ATTC 27853, 18 h) came to 2 µg/mL (≈ 1.84 µM). Also, the “MIC P. aeruginosa FADDI PA070” value in [2] (FADDI PA070, 18 h) came to 8 µg/mL (≈ 7.34 µM). Moreover, the “MIC S. aureus ATCC 25923” value against S. aureus ATCC 25923 (ATCC 25923, 18 h) was over 32 µg/mL. In addition, in the data set “in vitro”, the CC50 at 24 h worked out at 289 µM.
Consider `CC(C)C[C@@H]1NC(=O)[C@@H](Cc2ccccc2)NC(=O)[C@H](CCN)NC(=O)[C@@H](NC(=O)[C@@H](CCN)NC(=O)[C@@H](NC(=O)Nc2ccccc2Cl)[C@@H](C)O)CCNC(=O)[C@H]([C@@H](C)O)NC(=O)[C@H](CCN)NC(=O)[C@H](CCN)NC1=O` [Compound 22] ({NH(2-ClPh)-CO}-T[dDab][Dab][Dab][dF]L[Dab][Dab]T; lactam 3-C), for which, in the data set on A. baumannii ATCC 19606 (broth microdilution, 18 h), the “MIC A. baumannii ATCC 19606” value is over 32 µg/mL. Moreover, in the data set on E. coli ATCC 25922 (broth microdilution, 18 h, 37 °C), the “MIC E. coli ATCC 25922” value was determined as 16 µg/mL (≈ 14.3 µM). Moreover, the “MIC K. pneumoniae ATCC 13833” value against K. pneumoniae ATCC 13833 (broth microdilution, 18 h) worked out at 16 µg/mL (≈ 14.3 µM). Also, the “MIC K. pneumoniae ATCC 700603” value in [1] (ESBL strain, broth microdilution, 18 h) stood at 16 µg/mL (≈ 14.3 µM). The “MIC K. pneumoniae BAA 2146” value against K. pneumoniae BAA 2146 (NDM-1 positive strain, broth microdilution, 18 h) came out at 16 µg/mL (≈ 14.3 µM). The “MIC P. aeruginosa ATTC 27853” value against P. aeruginosa ATTC 27853 (broth microdilution, 18 h) amounted to 2 µg/mL (≈ 1.79 µM). Besides, the “MIC P. aeruginosa FADDI PA070” value in data set [2] (Pmx-resistant clinical isolate, broth microdilution, 18 h) is over 32 µg/mL. Also, the “MIC S. aureus ATCC 25923” value in the data set with S. aureus ATCC 25923 (Gram-positive strain, broth microdilution, 18 h) is over 32 µg/mL. The compound also had a CC50 at 24 h in “in vitro” of over 300 µM.
In the case of `CCCCCCCC(=O)N[C@@H](CO)C(=O)N[C@H](CCN)C(=O)N[C@H]1CCNC(=O)[C@H]([C@@H](C)O)NC(=O)[C@H](CCN)NC(=O)[C@H](CCN)NC(=O)[C@H](CC(C)C)NC(=O)[C@@H](Cc2ccccc2)NC(=O)[C@H](CCN)NC1=O` [Compound 30] (Octanoyl-S[dDab][Dab][Dab][dF]L[Dab][Dab]T; lactam 3-C), the “MIC A. baumannii ATCC 19606” value against A. baumannii ATCC 19606 (ATCC 19606, 18 h) was over 32 µg/mL. In addition, in the data set on E. coli ATCC 25922 (ATCC 25922, 18 h), the “MIC E. coli ATCC 25922” value was 8 µg/mL (≈ 7.44 µM). Further, the “MIC K. pneumoniae ATCC 13833” value in the data set on K. pneumoniae ATCC 13833 (ATCC 13833, 18 h) is over 32 µg/mL. For the same compound, in data set [1] (ATCC 700603, 18 h), the “MIC K. pneumoniae ATCC 700603” value amounted to 4 µg/mL (≈ 3.72 µM). Also, the “MIC K. pneumoniae BAA 2146” value against K. pneumoniae BAA 2146 (BAA 2146, 18 h) was 8 µg/mL (≈ 7.44 µM). Further, in the data set on P. aeruginosa ATTC 27853 (ATTC 27853, 18 h), the “MIC P. aeruginosa ATTC 27853” value is 1 µg/mL (≈ 0.93 µM). Further, the “MIC P. aeruginosa FADDI PA070” value in [2] (FADDI PA070, 18 h) worked out at 16 µg/mL (≈ 14.9 µM). Also, the “MIC S. aureus ATCC 25923” value in the data set on S. aureus ATCC 25923 (ATCC 25923, 18 h) was over 32 µg/mL. In addition, the CC50 at 24 h in “in vitro” is over 300 µM.
For `CN[C@H](CC(C)C)C(=O)N[C@H]1C(=O)N[C@@H](CC(N)=O)C(=O)N[C@H]2C(=O)N[C@H]3C(=O)N[C@H](C(=O)N[C@H](C(=O)O)c4cc(O)cc(O)c4-c4cc3ccc4O)[C@H](O)c3ccc(c(Cl)c3)Oc3cc2cc(c3O[C@@H]2O[C@H](CO)[C@@H](O)[C@H](O)[C@H]2O[C@H]2C[C@](C)(N)[C@H](O)[C@H](C)O2)Oc2ccc(cc2Cl)[C@H]1O` [Vanc, vancomycin, reference compound], the MIC in the data set on A. baumannii ATCC 19606 (Acinetobacter baumannii, ATCC19606, 18 h, read-out: MIC A. baumannii ATCC 19606) is over 32 µg/mL; in the data set with E. coli ATCC 25922 (Escherichia coli, ATCC25922, 18 h, read-out: MIC E. coli ATCC 25922), over 32 µg/mL; with K. pneumoniae ATCC 13833 (Klebsiella pneumoniae, ATCC13833, 18 h, read-out: MIC K. pneumoniae ATCC 13833), over 32 µg/mL; in data set [1] (Klebsiella pneumoniae, ATCC700603, 18 h, read-out: MIC K. pneumoniae ATCC 700603), over 32 µg/mL; in the data set with K. pneumoniae BAA 2146 (Klebsiella pneumoniae, BAA2146, 18 h, read-out: MIC K. pneumoniae BAA 2146) it was over 32 µg/mL; in the data set on P. aeruginosa ATTC 27853 (Pseudomonas aeruginosa, ATTC27853, 18 h, read-out: MIC P. aeruginosa ATTC 27853), over 32 µg/mL. The MIC in [2] (Pseudomonas aeruginosa, FADDIPA070, 18 h, read-out: MIC P. aeruginosa FADDI PA070) was over 32 µg/mL; with S. aureus ATCC 25923 (Staphylococcus aureus, ATCC25923, 18 h, read-out: MIC S. aureus ATCC 25923), 2 µg/mL (≈ 1.38 µM). For the same compound, the CC50 at 24 h in “in vitro” is over 300 µM.

(Values after publication PMC6384738, “Structure-Function Studies of Polymyxin B Lipononapeptides” (Molecules, 2019).)
